Reference: patent US5834461A, “Tricyclic benzazepine vasopressin antagonists” (American Cyanamid Company, priority 1997, dated 1998)

Key:
[1] = biological target: vasopressin V1 receptor (rat liver plasma membranes) (Rattus norvegicus, UniProt P30560); experiment: Binding Assay to Rat Hepatic V1 Receptors; details: rat hepatic V1
[2] = biological target: T1, rat kidney medullary V2 receptors (Rattus norvegicus, UniProt Q00788); experiment: Binding Assay to Rat Kidney Medullary V2 Receptors; details: rat kidney medullary V2
T1 construct: Medullary tissues from rat kidneys are dissected out; from tissue; host or cells: rat kidney medulla membranes
T1 sequence (Q00788 whole entry): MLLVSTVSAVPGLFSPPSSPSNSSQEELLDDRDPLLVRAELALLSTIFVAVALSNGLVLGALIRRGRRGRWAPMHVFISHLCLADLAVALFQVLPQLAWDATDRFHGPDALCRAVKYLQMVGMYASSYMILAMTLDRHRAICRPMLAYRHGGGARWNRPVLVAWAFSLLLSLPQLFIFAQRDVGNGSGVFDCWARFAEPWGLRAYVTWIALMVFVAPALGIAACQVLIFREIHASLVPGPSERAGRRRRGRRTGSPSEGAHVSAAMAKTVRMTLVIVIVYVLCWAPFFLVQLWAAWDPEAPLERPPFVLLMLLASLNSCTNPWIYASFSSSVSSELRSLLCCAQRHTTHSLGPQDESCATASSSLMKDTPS
Outline: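 Competition binding: [3H]AVP at 0.8 nM, test compounds from 50% DMSO, and membranes from rat kidney medulla, left 120 min on the bench. Filtration then liquid scintillation counting measured bound ligand; 1.0 μM unlabeled ligand set non-specific binding.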

[3] = system: vasopressin V2; experiment: Vasopressin V2 Antagonist Activity in Conscious Hydrated Rats (diuretic effect); format: in vivo, normal Sprague-Dawley rats; details: 10 mg/kg orally, AVP 0.4 μg/kg i.p.
Protocol: Conscious hydrated rats are treated with compounds under study from 0.1 to 100 mg/kg orally or vehicle. Two to four rats are used for each compound. One hour later, arginine vasopressin (AVP, antidiuretic hormore, ADH) dissolved in peanut oil is administered at 0.4 μg/kg intraperitoneally. Two rats in each test would not receive arginine vasopressin but only the vehicle (peanut oil) to serve as water-loading control. Twenty minutes later each rat is given 30 mL/kg of deionized water orally by gavage and is placed individually in a metabolic cage equipped with a funnel and a graduated glass cylinder to collect urine for four hours. Urine volume is measured and osmolality analyzed by use of a Fiske One-Ten osmometer (Fiske Assoc., Norwood, Mass., USA). Urinary sodium, potassium, and chloride are analyzed by use of ion-specific electrodes in a Beckman E3 (Electrolyte 3) Analyzer. In the following results, […] and decreased osmolality relative to AVP-control indicates activity.

[4] = system: vasopressin V1; experiment: Vasopressin V1 Antagonist Activity in Conscious Rats (vasopressin vasopressor response); format: in vivo, rat (spontaneously hypertensive rats); design: Average Change: unit not given here
Outline: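 Conscious rats had the ventral caudal tail artery cannulated into the lower abdominal aorta under local procaine anesthesia, plus a caudal vein cannula for intravenous dosing. Pulsatile blood pressure was recorded via a Statham P23Db transducer. Vasopressor responses to vasopressin injections were measured before and after compound dosing, with percent antagonism calculated relative to the pre-drug response taken as 100%.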

[5] = 10 mg/kg i.v., VAS 0.01 i.u./kg, 30 min
[6] = 10 mg/kg i.v., VAS 0.02 i.u./kg, 30 min
[7] = 20 mg/kg i.v., VAS 0.01 i.u./kg, 60 min
[8] = 20 mg/kg i.v., VAS 0.01 i.u./kg, 90 min
[9] = 20 mg/kg i.v., VAS 0.01 i.u./kg, 120 min
[10] = 20 mg/kg i.v., VAS 0.01 i.u./kg, 180 min
[11] = 20 mg/kg i.v., VAS 0.01 i.u./kg, 240 min
[12] = 20 mg/kg i.v., VAS 0.01 i.u./kg, 300 min
[13] = 20 mg/kg i.v., VAS 0.02 i.u./kg, 60 min
[14] = 20 mg/kg i.v., VAS 0.02 i.u./kg, 90 min
[15] = 20 mg/kg i.v., VAS 0.02 i.u./kg, 120 min
[16] = 20 mg/kg i.v., VAS 0.02 i.u./kg, 180 min
[17] = 20 mg/kg i.v., VAS 0.02 i.u./kg, 240 min
[18] = 20 mg/kg i.v., VAS 0.02 i.u./kg, 300 min
[19] = 10 mg/kg i.v., VAS 0.01 i.u./kg, 60 min
[20] = 10 mg/kg i.v., VAS 0.01 i.u./kg, 90 min
[21] = 10 mg/kg i.v., VAS 0.01 i.u./kg, 120 min
[22] = 10 mg/kg i.v., VAS 0.01 i.u./kg, 180 min
[23] = 10 mg/kg i.v., VAS 0.01 i.u./kg, 240 min
[24] = 10 mg/kg i.v., VAS 0.01 i.u./kg, 300 min
[25] = 10 mg/kg i.v., VAS 0.02 i.u./kg, 60 min
[26] = 10 mg/kg i.v., VAS 0.02 i.u./kg, 90 min
[27] = 10 mg/kg i.v., VAS 0.02 i.u./kg, 120 min
[28] = 10 mg/kg i.v., VAS 0.02 i.u./kg, 180 min
[29] = 10 mg/kg i.v., VAS 0.02 i.u./kg, 240 min
[30] = 10 mg/kg i.v., VAS 0.02 i.u./kg, 300 min

Chain of vasopressin V1 receptor (rat liver plasma membranes) (P30560 whole entry): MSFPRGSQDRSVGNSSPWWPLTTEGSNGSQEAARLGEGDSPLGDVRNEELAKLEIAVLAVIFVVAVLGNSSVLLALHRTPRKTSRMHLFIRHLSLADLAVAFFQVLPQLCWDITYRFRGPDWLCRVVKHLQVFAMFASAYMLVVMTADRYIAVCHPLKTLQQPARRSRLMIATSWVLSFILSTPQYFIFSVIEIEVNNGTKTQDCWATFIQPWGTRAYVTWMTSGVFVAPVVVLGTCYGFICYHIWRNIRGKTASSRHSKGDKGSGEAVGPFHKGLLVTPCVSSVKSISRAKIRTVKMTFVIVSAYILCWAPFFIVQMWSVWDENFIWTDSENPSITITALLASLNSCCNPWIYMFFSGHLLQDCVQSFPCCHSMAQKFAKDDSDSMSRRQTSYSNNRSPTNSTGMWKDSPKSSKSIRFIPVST

CSc1ccccc1C(=O)Nc1ccc(C(=O)N2Cc3ccccc3Cc3ccccc32)cc1 [Example 61, N-[4-[(6.11-Dihydro-5H-dibenz[b.e]azepin-5-yl)-carbonyl]phenyl]-2-(methylthio)benzamide]
IC50 [1]: 52 nM | IC50 [2]: 68 nM | Osmolality [3]: 975 mOsm/kg | Urine Volume [3]: 9.3 ml/4 hrs. | Average Change [4, 5]: 21 | Inhibition [4, 5]: 26% | Average Change [4, 6]: 32.5 | Inhibition [4, 6]: 37% | Average Change [4, 7]: 13 | Inhibition [4, 7]: 54% | Average Change [4, 8]: 8 | Inhibition [4, 8]: 72% | Average Change [4, 9]: 12 | Inhibition [4, 9]: 58% | Average Change [4, 10]: 15.5 | Inhibition [4, 10]: 46% | Average Change [4, 11]: 12 | Inhibition [4, 11]: 58% | Average Change [4, 12]: 15.5 | Inhibition [4, 12]: 46% | Average Change [4, 13]: 14.5 | Inhibition [4, 13]: 72% | Average Change [4, 14]: 16.5 | Inhibition [4, 14]: 68% | Average Change [4, 15]: 20 | Inhibition [4, 15]: 61% | Average Change [4, 16]: 17.5 | Inhibition [4, 16]: 66% | Average Change [4, 17]: 23 | Inhibition [4, 17]: 55% | Average Change [4, 18]: 24 | Inhibition [4, 18]: 53%

Cc1ccccc1C(=O)Nc1ccc(C(=O)N2Cc3ccccc3Sc3ccccc32)cc1 [Example 62, N-[4-[(Dibenz[b,f][1,4]thiazepin-10(11H)yl)carbonyl]-phenyl]-2-methylbenzamide]
IC50 [1]: 404 nM | IC50 [2]: 858 nM | Osmolality [3]: 1034 mOsm/kg | Urine Volume [3]: 7.7 ml/4 hrs. | Average Change [4, 5]: 57 | Inhibition [4, 5]: -44% | Average Change [4, 6]: 61.5 | Inhibition [4, 6]: -2% | Average Change [4, 7]: 13 | Inhibition [4, 7]: 67% | Average Change [4, 8]: 23 | Inhibition [4, 8]: 42% | Average Change [4, 9]: 23.5 | Inhibition [4, 9]: 41% | Average Change [4, 10]: 24.5 | Inhibition [4, 10]: 38% | Average Change [4, 11]: 30 | Inhibition [4, 11]: 24% | Average Change [4, 12]: 25 | Inhibition [4, 12]: 37% | Average Change [4, 13]: 29.5 | Inhibition [4, 13]: 51% | Average Change [4, 14]: 54 | Inhibition [4, 14]: 11% | Average Change [4, 15]: 50 | Inhibition [4, 15]: 17% | Average Change [4, 16]: 15 | Inhibition [4, 16]: 75% | Average Change [4, 17]: 40.5 | Inhibition [4, 17]: 33% | Average Change [4, 18]: 38 | Inhibition [4, 18]: 37%

Cc1ccccc1C(=O)Nc1ccc(C(=O)N2CCc3ccccc3-c3ccccc32)cc1 [Example 92, N-[4-[(6,7-Dihydro-5H-dibenz[b,d]azepin-5-yl)-carbonyl]phenyl]-2-methylbenzamide]
IC50 [1]: 98 nM | IC50 [2]: 25 nM | Osmolality [3]: 679 mOsm/kg | Urine Volume [3]: 13.5 ml/4 hrs. | Average Change [4, 5]: 10.5 | Inhibition [4, 5]: 65% | Average Change [4, 19]: 18 | Inhibition [4, 19]: 40% | Average Change [4, 20]: 17.5 | Inhibition [4, 20]: 42% | Average Change [4, 21]: 19 | Inhibition [4, 21]: 37% | Average Change [4, 22]: 18 | Inhibition [4, 22]: 40% | Average Change [4, 23]: 19 | Inhibition [4, 23]: 37% | Average Change [4, 24]: 17.5 | Inhibition [4, 24]: 42% | Average Change [4, 6]: 18.5 | Inhibition [4, 6]: 60% | Average Change [4, 25]: 22 | Inhibition [4, 25]: 53% | Average Change [4, 26]: 27 | Inhibition [4, 26]: 42% | Average Change [4, 27]: 20.5 | Inhibition [4, 27]: 56% | Average Change [4, 28]: 29.5 | Inhibition [4, 28]: 37% | Average Change [4, 29]: 18 | Inhibition [4, 29]: 61% | Average Change [4, 30]: 24 | Inhibition [4, 30]: 48%

Cc1ccccc1NC(=O)c1ccc(C(=O)N2Cc3ccccc3Cc3ccccc32)cc1 [Example 123, 4-[(6,11-Dihydro-5H-dibenz[b,e]azepin-5-yl)-carbonyl]-N-(2-methylphenyl)benzamide]
IC50 [1]: 43 nM | IC50 [2]: 190 nM | Osmolality [3]: 1125 mOsm/kg | Urine Volume [3]: 5.8 ml/4 hrs. | Average Change [4, 5]: 17.5 | Inhibition [4, 5]: 0% | Average Change [4, 6]: 20 | Inhibition [4, 6]: 39% | Average Change [4, 7]: 6 | Inhibition [4, 7]: 66% | Average Change [4, 8]: 6 | Inhibition [4, 8]: 66% | Average Change [4, 9]: 5 | Inhibition [4, 9]: 71% | Average Change [4, 10]: 4 | Inhibition [4, 10]: 77% | Average Change [4, 11]: 8 | Inhibition [4, 11]: 54% | Average Change [4, 12]: 8 | Inhibition [4, 12]: 54% | Average Change [4, 13]: 6 | Inhibition [4, 13]: 82% | Average Change [4, 14]: 7 | Inhibition [4, 14]: 79% | Average Change [4, 15]: 4.5 | Inhibition [4, 15]: 86% | Average Change [4, 16]: 6.5 | Inhibition [4, 16]: 80% | Average Change [4, 17]: 6.5 | Inhibition [4, 17]: 80% | Average Change [4, 18]: 8 | Inhibition [4, 18]: 76%
